Results published in patent US20150111262A1, “METHODS AND MATERIALS FOR PRODUCING FIVE CARBON BUILDING BLOCKS FROM PROLINE” (INVISTA North America S.á r.l., priority 2013, published 2015).

Experiments:
diamine transaminase = settings: Kim, 1964; cited from earlier work
[1] = target: T1, carboxylate reductase of SEQ ID NO: 1 (Mycobacterium marinum, UniProt B2HN69); assay: carboxylate reductase activity, 5-hydroxypentanoate to 5-hydroxypentanal; type: biochemical; settings: SEQ ID NO 1, enhanced by sfp gene product; 1 mM ATP, 1 mM NADPH, pH 7.5, room temperature, 20 min; FIG. 12
T1 construct: His-tag (N); made in house; host or cells: E. coli BL21[DE3], pET Duet
T1 sequence (B2HN69 whole entry): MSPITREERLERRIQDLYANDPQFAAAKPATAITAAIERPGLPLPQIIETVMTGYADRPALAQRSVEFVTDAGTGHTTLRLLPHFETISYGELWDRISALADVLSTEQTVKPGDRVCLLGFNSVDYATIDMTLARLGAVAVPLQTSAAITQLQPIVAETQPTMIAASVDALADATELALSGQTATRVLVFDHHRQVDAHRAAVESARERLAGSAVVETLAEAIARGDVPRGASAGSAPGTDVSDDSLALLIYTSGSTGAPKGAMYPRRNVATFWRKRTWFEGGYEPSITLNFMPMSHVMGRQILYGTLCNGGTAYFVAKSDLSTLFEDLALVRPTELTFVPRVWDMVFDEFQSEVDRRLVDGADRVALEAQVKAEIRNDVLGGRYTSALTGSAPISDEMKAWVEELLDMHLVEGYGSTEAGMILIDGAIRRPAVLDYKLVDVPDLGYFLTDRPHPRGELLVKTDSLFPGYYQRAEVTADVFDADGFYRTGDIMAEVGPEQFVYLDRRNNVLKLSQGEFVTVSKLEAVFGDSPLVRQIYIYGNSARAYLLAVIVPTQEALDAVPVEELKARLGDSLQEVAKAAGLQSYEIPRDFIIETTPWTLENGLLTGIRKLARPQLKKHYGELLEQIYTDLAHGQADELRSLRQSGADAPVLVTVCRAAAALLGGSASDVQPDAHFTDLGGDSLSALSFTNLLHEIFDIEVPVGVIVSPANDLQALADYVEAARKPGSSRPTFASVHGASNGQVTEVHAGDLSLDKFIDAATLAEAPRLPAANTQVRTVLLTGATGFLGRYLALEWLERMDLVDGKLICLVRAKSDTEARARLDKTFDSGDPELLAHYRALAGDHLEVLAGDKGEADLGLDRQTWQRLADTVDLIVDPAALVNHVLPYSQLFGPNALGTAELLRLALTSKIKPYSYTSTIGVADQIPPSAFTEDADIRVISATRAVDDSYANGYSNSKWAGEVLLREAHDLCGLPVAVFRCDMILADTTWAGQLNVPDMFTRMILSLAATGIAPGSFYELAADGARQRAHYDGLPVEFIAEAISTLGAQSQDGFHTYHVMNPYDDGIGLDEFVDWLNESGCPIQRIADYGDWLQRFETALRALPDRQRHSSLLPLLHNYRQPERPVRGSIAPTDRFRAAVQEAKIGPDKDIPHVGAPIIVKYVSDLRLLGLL
Description: (§1) A sequence encoding a His-tag was added to the genes from Mycobacterium marinum, Mycobacterium smegmatis, Segniliparus rugosus, Mycobacterium massiliense, and Segniliparus rotundus that encode the carboxylate reductases of SEQ ID NOs: 1, 2, 3, 5 and 6, respectively (see FIG. 7) such that N-terminal HIS tagged carboxylate reductases could be produced. Each of the modified genes was cloned into a pET Duet expression vector alongside a sfp gene encoding a His-tagged phosphopantetheine transferase from Bacillus subtilis, both under control of the T7 promoter.
(§2) Each expression vector was transformed into a BL21[DE3] E. coli host and the resulting recombinant E. coli strains were cultivated at 37° C. in a 250 mL shake flask culture containing 50 mL LB media and antibiotic selection pressure, with shaking at 230 rpm. Each culture was induced overnight at 37° C. using an auto-induction media.
(§3) The pellet from each induced shake flask culture was harvested via centrifugation. Each pellet was resuspended and lysed via sonication. […]
(§4) Enzyme activity (i.e., 5-hydroxypentanoate to 5-hydroxypentanal) assays were performed in triplicate in a buffer composed of a final concentration of 50 mM HEPES buffer (pH=7.5), 2 mM 5-hydroxypentanal, 10 mM MgCl2, 1 mM ATP, and 1 mM NADPH. […] The consumption of NADPH was monitored by absorbance at 340 nm.

[2] = system: carboxylate reductase of SEQ ID NO: 2; assay: as above; type: biochemical, Mycobacterium smegmatis; settings: SEQ ID NO 2, enhanced by sfp gene product; 1 mM ATP, 1 mM NADPH, pH 7.5, room temperature, 20 min; FIG. 12
Description: as §1, §2, §3, §4

[3] = system: carboxylate reductase of SEQ ID NO: 3; assay: as above; type: biochemical, Segniliparus rugosus; settings: SEQ ID NO 3, enhanced by sfp gene product; 1 mM ATP, 1 mM NADPH, pH 7.5, room temperature, 20 min; FIG. 12
Description: as §1, §2, §3, §4

[4] = system: carboxylate reductase of SEQ ID NO: 5; assay: as above; type: biochemical, Mycobacterium massiliense; settings: SEQ ID NO 5, enhanced by sfp gene product; 1 mM ATP, 1 mM NADPH, pH 7.5, room temperature, 20 min; FIG. 12
Description: as §1, §2, §3, §4

[5] = system: carboxylate reductase of SEQ ID NO: 6; assay: as above; type: biochemical, Segniliparus rotundus; settings: SEQ ID NO 6, enhanced by sfp gene product; 1 mM ATP, 1 mM NADPH, pH 7.5, room temperature, 20 min; FIG. 12
Description: as §1, §2, §3, §4

[6] = system: reversible 5-aminovalerate transaminase; settings: Barker et al., J. Biol. Chem., 1987; cited from earlier work
[7] = system: reversible ω-transaminase (SEQ ID NO: 7); settings: Kaulmann et al., 2007; cited from earlier work
[8] = system: reversible 4-aminobubyrate:2-oxoglutarate transaminase; settings: Yonaha et al., Eur. J. Biochem., 1985; cited from earlier work
[9] = system: ω-transaminase of SEQ ID NO: 9; assay: ω-transaminase activity, glutarate semialdehyde to 5-aminopentanoate (reverse direction); type: biochemical, Pseudomonas syringae; settings: cell free extract; 10 mM glutarate semialdehyde, 10 mM L-alanine, pH 7.5, 25° C., 4 h; RP-HPLC; FIG. 9
Description: A sequence encoding an N-terminal His-tag was added to the genes from Chromobacterium violaceum and Pseudomonas syringae encoding the ω-transaminases of SEQ ID NOs: 7 and 9, respectively (see FIG. 7) such that N-terminal HIS tagged ω-transaminases could be produced. Each of the resulting modified genes was cloned into a pET21a expression vector under control of the T7 promoter and each expression vector was transformed into a BL21[DE3] E. coli host. The resulting recombinant E. coli strains were cultivated at 37° C. in a 250 mL shake flask culture containing 50 mL LB media and antibiotic selection pressure, with shaking at 230 rpm. Each culture was induced overnight at 16° C. using 1 mM IPTG.
The pellet from each induced shake flask culture was harvested via centrifugation. Each pellet was resuspended and lysed via sonication. The cell debris was separated from the supernatant via centrifugation and the cell free extract was used immediately in enzyme activity assays.
Enzyme activity in the reverse direction (i.e., glutarate semialdehyde to 5-aminopentanoate) were performed in a buffer composed of a final concentration of 50 mM HEPES buffer (pH=7.5), 10 mM glutarate semialdehyde, 10 mM L-alanine and 100 μM pyridoxyl 5′ phosphate. […] The formation of pyruvate was quantified via RP-HPLC.

[10] = system: carboxylate reductase of SEQ ID NO 6; assay: carboxylate reductase activity, glutarate semialdehyde to pentanedial; type: biochemical, Segniliparus rotundus; settings: SEQ ID NO 6, enhanced by sfp gene product; 2 mM glutarate semialdehyde, 1 mM ATP, 1 mM NADPH, pH 7.5, room temperature, 20 min; FIG. 15
Description: The N-terminal His-tagged carboxylate reductase of SEQ ID NO 6 (see Example 2 and FIG. 7) was assayed using glutarate semialdehyde as substrate. The enzyme activity assay was performed in triplicate in a buffer composed of a final concentration of 50 mM HEPES buffer (pH=7.5), 2 mM glutarate semialdehyde, 10 mM MgCl2, 1 mM ATP and 1 mM NADPH. The enzyme activity assay reaction was initiated by adding purified carboxylate reductase and phosphopantetheine transferase or the empty vector control to the assay buffer containing the glutarate semialdehyde and then incubated at room temperature for 20 min. The consumption of NADPH was monitored by absorbance at 340 nm.

**Q.** Which diamine transaminase activity (diamine transaminase) does the source give for NCCCCCCCN [1,7 diaminoheptane] here?
**A.** The diamine transaminase activity was “demonstrated activity”.

**Q.** Which results are given for O=C(O)CCCCO [5-hydroxypentanoate]?
**A.** acceptance as substrate (consumption of NADPH, absorbance at 340 nm) vs empty vector control [1]: accepted 5-hydroxypentanoate as substrate; acceptance as substrate (consumption of NADPH, absorbance at 340 nm) vs empty vector control [2]: accepted 5-hydroxypentanoate as substrate; acceptance as substrate (consumption of NADPH, absorbance at 340 nm) vs empty vector control [3]: accepted 5-hydroxypentanoate as substrate; acceptance as substrate (consumption of NADPH, absorbance at 340 nm) vs empty vector control [4]: accepted 5-hydroxypentanoate as substrate; acceptance as substrate (consumption of NADPH, absorbance at 340 nm) vs empty vector control [5]: accepted 5-hydroxypentanoate as substrate

**Q.** For NCCCCCC(=O)O [6-aminohexanoate], which “activity for the conversion to adipate semialdehyde” value [6] is on record?
**A.** The value was “demonstrated analogous activity”.

**Q.** What about the “activity accepting as amino donor” value [7] of the same molecule?
**A.** Its value is “demonstrated analogous activity”.

**Q.** And the “activity for the conversion to adipate semialdehyde” value [8]?
**A.** The value was “demonstrated analogous activity”.

**Q.** For O=CCCCC(=O)O [glutarate semialdehyde], which “acceptance as substrate (conversion of L-alanine to pyruvate) vs empty vector control” value [9] is on record?
**A.** Its value is “accepted glutarate semialdehyde as substrate”.

**Q.** And the “acceptance as substrate (consumption of NADPH, absorbance at 340 nm) vs empty vector control” value [10]?
**A.** The value was “accepted glutarate semialdehyde as substrate”.
